Data published in article doi:10.1101/2023.10.02.559746v1 (biorxiv, 2023).

Biological target: T1, RALY (Homo sapiens, UniProt Q9UKM9)
T1 sequence (Q9UKM9 2-306): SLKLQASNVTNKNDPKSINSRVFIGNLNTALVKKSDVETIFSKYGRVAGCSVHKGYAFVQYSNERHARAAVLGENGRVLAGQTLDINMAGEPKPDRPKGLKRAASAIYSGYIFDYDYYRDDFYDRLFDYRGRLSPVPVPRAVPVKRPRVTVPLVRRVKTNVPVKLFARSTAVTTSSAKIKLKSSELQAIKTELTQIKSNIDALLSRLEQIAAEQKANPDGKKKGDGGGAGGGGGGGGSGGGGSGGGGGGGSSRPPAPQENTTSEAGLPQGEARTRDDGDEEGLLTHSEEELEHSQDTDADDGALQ
Assay: surface plasmon resonance imaging
Format: binding

## CC(C)[C@H](CN)NC[C@H](C)NS(=O)(=O)c1ccc(C(C)(C)C)cc1 [2470-51, N-((S)-1-(((R)-1-amino-3-methylbutan-2-yl)amino)propan-2-yl)-4-(tert-butyl)benzenesulfonamide]
  Kd: 15.5 µM
